Results as given in patent publication US20170000133A1, “BENZOXABOROLE FUNGICIDES” (SYNGENTA PARTICIPATIONS AG, priority 2013, published 2017).

Tests used:
[1] = tested on: Monographella nivalis (Microdochium nivale); assay: Monographella nivalis (Microdochium nivale) / liquid culture (foot rot cereals); format: cell-based; settings: PDB potato dextrose broth, 24° C., 4-5 days after application, read-out: disease control (inhibition of growth determined photometrically)
Fusarium culmorum = assay: microbe, parasite or virus in culture; format: cell-based; settings: read-out: disease control (inhibition of growth determined visually)
[2] = tested on: Thanatephorus cucumeris (Rhizoctonia solani); assay: Thanatephorus cucumeris (Rhizoctonia solani) / liquid culture (foot rot, damping-off); format: cell-based; settings: PDB potato dextrose broth, 24° C., 3-4 days after application, read-out: disease control (inhibition of growth determined photometrically)
Procedure, shortened: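 Photometric growth-inhibition readout taken 3-4 days after application, with cultures incubated at 24 °C. Test compound was applied at 200 ppm from DMSO solution to R. solani mycelial fragments in PDB.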

Pythium ultimum = Pythium ultimum / liquid culture (seedling damping off); format: cell-based; settings: Globisporangium ultimum; 200 ppm; potato dextrose broth, 24° C., 2-3 days after application; read-out: disease control (inhibition of growth determined photometrically)
[3] = tested on: Mycosphaerella graminicola (Septoria tritici); assay: Mycosphaerella graminicola (Septoria tritici) / liquid culture (Septoria blotch); format: cell-based; settings: Zymoseptoria tritici, PDB potato dextrose broth, 24° C., 4-5 days after application, read-out: disease control (inhibition of growth determined photometrically)
Procedure, shortened: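 Growth inhibition was read photometrically 4-5 days after application, following incubation at 24° C of fungal conidia in potato dextrose broth over test compound (200 ppm, from DMSO solution) in microtiter plates.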

[4] = tested on: Mycosphaerella arachidis (Cercospora arachidicola); assay: Mycosphaerella arachidis (Cercospora arachidicola) / liquid culture (early leaf spot); format: cell-based; settings: PDB potato dextrose broth, 24° C., 4-5 days after application, read-out: disease control (inhibition of growth determined photometrically)
Procedure, shortened: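 Test compound, applied at 200 ppm from DMSO solution, was combined with spore-containing potato dextrose broth. Photometric growth inhibition was scored after 4-5 days at 24° C.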

Plasmopara viticola = assay: whole plant or invertebrate; format: in vivo; settings: foliar, read-out: disease control
[5] = tested on: Glomerella lagenarium (Colletotrichum lagenarium); assay: Glomerella lagenarium (Colletotrichum lagenarium) / liquid culture (anthracnose); format: cell-based; settings: Colletotrichum orbiculare, PDB potato dextrose broth, 24° C., 3-4 days after application, read-out: disease control (inhibition of growth measured photometrically)
Experimental: 11. Glomerella lagenarium (Colletotrichum lagenarium)/Liquid Culture (Anthracnose): Conidia of the fungus from cryogenic storage were directly mixed into nutrient broth (PDB potato dextrose broth). After placing a DMSO solution of test compound into a 96-well microtiter plate at an application rate of 200 ppm, the nutrient broth containing the fungal spores was added. The test plates were incubated at 24° C. and the inhibition of growth was measured photometrically 3-4 days after application.

Gaeumannomyces graminis = Gaeumannomyces graminis / liquid culture (take-all of cereals); format: cell-based; settings: PDB potato dextrose broth, 24° C., 4-5 days after application, read-out: disease control (inhibition of growth determined photometrically)
Procedure, shortened: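 Growth inhibition measured photometrically 4–5 days post-application, following incubation at 24 °C. Test compound, applied from DMSO at 200 ppm, mixed with fungal mycelial fragments in potato dextrose broth.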

O=C(OC1CCC1)c1ccc2c(c1)B(O)OC2 [Compound 332]
≥ 80%: inhibition at 200 ppm [1] | inhibition at 200 ppm (Fusarium culmorum) | inhibition at 200 ppm [2] | inhibition at 200 ppm (Pythium ultimum) | inhibition at 200 ppm [3] | inhibition at 200 ppm [4] | pest or weed control at 200 ppm (Plasmopara viticola)

O=C(OCCc1c(Cl)cccc1Cl)c1cc2c(cc1Cl)COB2O [Compound 240]
≥ 80%: inhibition at 200 ppm [1] | inhibition at 200 ppm [5] | inhibition at 200 ppm [2] | inhibition at 200 ppm (Gaeumannomyces graminis) | inhibition at 200 ppm (Pythium ultimum) | inhibition at 200 ppm [3] | inhibition at 200 ppm [4] | pest or weed control at 200 ppm (Plasmopara viticola)

O=C(OCC1CC1)c1cc2c(cc1F)COB2O [Compound 388]
≥ 80%: inhibition at 200 ppm [1] | inhibition at 200 ppm [5] | inhibition at 200 ppm [2] | inhibition at 200 ppm (Gaeumannomyces graminis) | inhibition at 200 ppm (Pythium ultimum) | inhibition at 200 ppm [3] | inhibition at 200 ppm [4] | pest or weed control at 200 ppm (Plasmopara viticola)

O=C(OC1CCC1)c1cc2c(cc1F)COB2O [Compound 392]
≥ 80%: inhibition at 200 ppm [1] | inhibition at 200 ppm [5] | inhibition at 200 ppm [2] | inhibition at 200 ppm (Pythium ultimum) | inhibition at 200 ppm [3] | inhibition at 200 ppm [4] | pest or weed control at 200 ppm (Plasmopara viticola)

O=C(OC1CSC1)c1ccc2c(c1)B(O)OC2 [Compound 362]
≥ 80%: inhibition at 200 ppm [1] | inhibition at 200 ppm (Fusarium culmorum) | inhibition at 200 ppm [2] | inhibition at 200 ppm (Gaeumannomyces graminis) | inhibition at 200 ppm (Pythium ultimum) | inhibition at 200 ppm [3] | inhibition at 200 ppm [4]

O=C(OCc1cccc2ccccc12)c1cc2c(cc1F)COB2O [Compound 394]
≥ 80%: inhibition at 200 ppm [1] | inhibition at 200 ppm [5] | inhibition at 200 ppm [2] | inhibition at 200 ppm (Gaeumannomyces graminis) | inhibition at 200 ppm (Pythium ultimum) | inhibition at 200 ppm [3] | inhibition at 200 ppm [4] | pest or weed control at 200 ppm (Plasmopara viticola)

O=C(OCc1ccc(C(F)(F)F)nc1)c1ccc2c(c1)B(O)OC2 [Compound 343]
≥ 80%: inhibition at 200 ppm [1] | inhibition at 200 ppm [5] | inhibition at 200 ppm [2] | inhibition at 200 ppm (Gaeumannomyces graminis) | inhibition at 200 ppm (Pythium ultimum) | inhibition at 200 ppm [3] | inhibition at 200 ppm [4] | pest or weed control at 200 ppm (Plasmopara viticola)

C[Si](C)(C)/C=C/COC(=O)c1cc2c(cc1F)COB2O [Compound 404]
≥ 80%: inhibition at 200 ppm [1] | inhibition at 200 ppm [5] | inhibition at 200 ppm [2] | inhibition at 200 ppm (Gaeumannomyces graminis) | inhibition at 200 ppm (Pythium ultimum) | inhibition at 200 ppm [3] | inhibition at 200 ppm [4]

O=C(OCC1CCC1)c1cc2c(cc1F)COB2O [Compound 413]
≥ 80%: inhibition at 200 ppm [1] | inhibition at 200 ppm (Fusarium culmorum) | inhibition at 200 ppm [2] | inhibition at 200 ppm (Gaeumannomyces graminis) | inhibition at 200 ppm (Pythium ultimum) | inhibition at 200 ppm [3]

O=C(OCC(F)(F)Cl)c1ccc2c(c1)B(O)OC2 [Compound 314]
≥ 80%: inhibition at 200 ppm [1] | inhibition at 200 ppm [5] | inhibition at 200 ppm [2] | inhibition at 200 ppm (Gaeumannomyces graminis) | inhibition at 200 ppm (Pythium ultimum) | inhibition at 200 ppm [3] | inhibition at 200 ppm [4] | pest or weed control at 200 ppm (Plasmopara viticola)

O=C(OCCc1c(Cl)cccc1Cl)c1cc2c(cc1F)COB2O [Compound 433]
≥ 80%: inhibition at 200 ppm [1] | inhibition at 200 ppm (Fusarium culmorum) | inhibition at 200 ppm [2] | inhibition at 200 ppm (Gaeumannomyces graminis) | pest or weed control at 200 ppm (Plasmopara viticola)

O=C(OCC(Cl)(Cl)Cl)c1cc2c(cc1F)COB2O [Compound 382]
≥ 80%: inhibition at 200 ppm [1] | inhibition at 200 ppm [5] | inhibition at 200 ppm [2] | inhibition at 200 ppm (Gaeumannomyces graminis) | inhibition at 200 ppm (Pythium ultimum) | inhibition at 200 ppm [3] | inhibition at 200 ppm [4] | pest or weed control at 200 ppm (Plasmopara viticola)

C=CCOC(=O)c1cc2c(cc1F)COB2O [Compound 403]
≥ 80%: inhibition at 200 ppm [1] | inhibition at 200 ppm [5] | inhibition at 200 ppm [2] | inhibition at 200 ppm (Gaeumannomyces graminis) | inhibition at 200 ppm (Pythium ultimum) | inhibition at 200 ppm [3] | inhibition at 200 ppm [4] | pest or weed control at 200 ppm (Plasmopara viticola)

O=C(OCC1CC1)c1ccc2c(c1)B(O)OC2 [Compound 328]
≥ 80%: inhibition at 200 ppm [1] | inhibition at 200 ppm [5] | inhibition at 200 ppm [2] | inhibition at 200 ppm (Gaeumannomyces graminis) | inhibition at 200 ppm (Pythium ultimum) | inhibition at 200 ppm [3] | inhibition at 200 ppm [4] | pest or weed control at 200 ppm (Plasmopara viticola)

C#CCOC(=O)c1ccc2c(c1)B(O)OC2 [Compound 320]
≥ 80%: inhibition at 200 ppm [1] | inhibition at 200 ppm [5] | inhibition at 200 ppm [2] | inhibition at 200 ppm (Gaeumannomyces graminis) | inhibition at 200 ppm (Pythium ultimum) | inhibition at 200 ppm [3] | inhibition at 200 ppm [4] | pest or weed control at 200 ppm (Plasmopara viticola)

C=CCOC(=O)c1ccc2c(c1)B(O)OC2 [Compound 340]
≥ 80%: inhibition at 200 ppm [1] | inhibition at 200 ppm [5] | inhibition at 200 ppm [2] | inhibition at 200 ppm (Gaeumannomyces graminis) | inhibition at 200 ppm (Pythium ultimum) | inhibition at 200 ppm [3] | inhibition at 200 ppm [4] | pest or weed control at 200 ppm (Plasmopara viticola)

CC#CC(C)OC(=O)c1ccc2c(c1)B(O)OC2 (centres unmarked) [Compound 341]
≥ 80%: inhibition at 200 ppm [5] | inhibition at 200 ppm [2] | inhibition at 200 ppm (Gaeumannomyces graminis) | inhibition at 200 ppm (Pythium ultimum) | inhibition at 200 ppm [3] | inhibition at 200 ppm [4] | pest or weed control at 200 ppm (Plasmopara viticola)

O=C(OCc1ccsc1)c1cc2c(cc1Cl)COB2O [Compound 439]
≥ 80%: inhibition at 200 ppm [1] | inhibition at 200 ppm [5] | inhibition at 200 ppm [2] | inhibition at 200 ppm (Gaeumannomyces graminis) | inhibition at 200 ppm (Pythium ultimum) | inhibition at 200 ppm [3] | inhibition at 200 ppm [4] | pest or weed control at 200 ppm (Plasmopara viticola)
